Where a name gives a salt, the structure may show the parent alone. Read-outs that look alike come from different tables or passages of the source.
Tests used:
Human KB cells = assay: Cell viability assay of payloads (CellTiter-Glo 2.0); format: cell-based; conditions: 168 h, read-out: IC50 values (diluted in RPMI medium)
Experimental: Method: Human KB cells (ATCC® CCL-17™) were cultured in folic acid free rpmi-1640 medium (ThermoFisher, GIBCO) for at least 7 days before the study. The cells were seeded in opaque 96-well plates and allowed to attach overnight (cell density was carefully controlled to be 3,000 cells per well at the time of assay). After that, cells were treated with drug analogs (suspended in the same RPMI-1640 medium) at a concentration of zero to 1,000 nM. After 7 days, cell viability was assessed using the CellTiter-Glo® 2.0 assay (Promega) according to the manufacturer's instructions. The percent of viable cells at each concentration was calculated by normalizing the luminescence values to the untreated control. The half-maximal inhibitory concentration (IC50) of the payloads were plotted and fitted by using the Prism 8 software (GraphPad). Table 2 provides the IC50 of the payloads of the present disclosure (‘+’ indicates 1-9.9 nm; ‘++’ indicates 10-100 nm).

KB cell line = conditions: read-out: IC50 in KB cell line (++++); FA ligands per particle 12-22; linker-drug conjugates per particle 17-25
Experimental: The in vitro cytotoxicity of the NDCs disclosed herein were tested in cancer cells. The cancer cells were cultured in folic acid-free medium (RPMI1640, ThermoFisher, GIBCO) for at least one week before the study. Cells were plated in opaque 96-well plates at a density of 3×10^3 cells per well (total of […]) and allowed to attach overnight. The following day, cells were treated with NDC (FA-CDC) prepared using the linker-payload conjugate precursor compound 202 (Example 33), at a concentration range of 0-50 nM (0, 0.001, 0.005, 0.01, 0.05, 0.1, 0.5, 1, 5, 10, 50 nM) by adding […] of 10x stock FA-CDC Solution.
Cells were treated for a pre-defined exposure time (depending on the study design, e.g., 4-6 hours, or 7 days). In the case of short-exposure-time viability study, cancer cells in each wells were washed with […] PBS and refreshed with […] of cell medium. After washing, the plates were returned back to 37° C. incubator for 7 days before the viability assay. In the case of 7-day-exposure-time viability study, no additional washing step was performed. After 7 days, the cell viability was assessed using the CellTiter-Glo2.0 assay (Promega) according to manufacturer's instructions. Data for both viability and proliferation were plotted using Prism7 software (GraphPad).

[1] = Drug-release assay of nanoparticle-conjugated linker-payloads under cleavage conditions (Cat-B, redox-responsive or pH-sensitive cleaving study), RP-HPLC; format: in vitro ADME; conditions: linker-payload conjugated to DBCO-functionalized silica nanoparticle, 37° C., 24 hours
Outline: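 Azide linker-drugs were click-conjugated to DBCO-functionalized ultrasmall silica nanoparticles and incubated under cleavage conditions, e.g., Cat-B in 25 mM MES, 5 mM DTT, pH 5.0. Released versus non-released drug was quantified by C18 RP-HPLC peak area. Gradients were 0.01% TFA water/acetonitrile for protease/redox linkers and water/acetonitrile for pH-sensitive linkers.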

In the case of `CCc1c2c(nc3ccc(OCC(=O)NN)cc13)-c1cc3c(c(=O)n1C2)COC(=O)[C@]3(O)CC` [Example 385, (S)-2-((4,11-diethyl-4-hydroxy-3,14-dioxo-3,4,12,14-tetrahydro-1H-pyrano[3′,4′:6,7]indolizino[1,2-b]quinolin-9-yl)oxy)acetohydrazide], the IC50 (Human KB cells; Homo sapiens, KB) is reported as 10 to 100 nM.

Work on `CCc1c2c(nc3ccc(OC(C)(C)C(=O)NN)cc13)-c1cc3c(c(=O)n1C2)COC(=O)[C@]3(O)CC` [Example 422, (S)-2-((4,11-diethyl-4-hydroxy-3,14-dioxo-3,4,12,14-tetrahydro-1H-pyrano[3′,4′:6,7]indolizino[1,2-b]quinolin-9-yl)oxy)-2-methylpropanehydrazide] yielded an IC50 (Human KB cells; Homo sapiens, KB) of 10 to 100 nM.

With `CC[C@@]1(O)C(=O)OCc2c1cc1n(c2=O)Cc2c-1nc1cc(F)c(C)c3c1c2[C@@H](NC(=O)C(O)c1ccc(NC(=O)[C@H](CCCNC(N)=O)NC(=O)[C@@H](NC(=O)CCOCCOCCOCCOCCOCCOCCN=[N+]=[N-])C(C)C)cc1)CC3` (stereo partly drawn) [Example 18, 1-azido-N-((2S)-1-(((2S)-1-((4-(2-(((1S,9S)-9-ethyl-5-fluoro-9-hydroxy-4-methyl-10,13-dioxo-2,3,9,10,13,15-hexahydro-1H,12H-benzo[de]pyrano[3′,4′:6,7]indolizino[1,2-b]quinolin-1-yl)amino)-1-hydroxy-2-oxoethyl)phenyl)amino)-1-oxo-5-ureidopentan-2-yl)amino)-3-methyl-1-oxobutan-2-yl)-3,6,9,12,15,18-hexaoxahenicosan-21-amide] the IC50 (KB cell line) was 17.5 nM and the “% of Payload Release in 24 Hours Under Cleavage Conditions” value (“% of Payload Release” for short) [1] was “+++ (‘+++’ indicates 51-75% release)”.

`CC[C@@]1(O)C(=O)OCc2c1cc1n(c2=O)Cc2c-1nc1cc(F)c(C)c3c1c2[C@@H](NC(=O)C(O)c1ccc(N)cc1)CC3` (stereo partly drawn) [Example 458, 2-(4-aminophenyl)-N-((1S,9S)-9-ethyl-5-fluoro-9-hydroxy-4-methyl-10,13-dioxo-2,3,9,10,13,15-hexahydro-1H,12H-benzo[de]pyrano[3′,4′:6,7]indolizino[1,2-b]quinolin-1-yl)-2-hydroxyacetamide] showed an IC50 (Human KB cells; Homo sapiens, KB) of 1 to 9.9 nM.

With `CCc1c2c(nc3ccc(OCCCSC(C)=O)cc13)-c1cc3c(c(=O)n1C2)COC(=O)[C@]3(O)CC` [Example 327] the IC50 (Human KB cells; Homo sapiens, KB) was 10 to 100 nM.

With `CCc1c2c(nc3ccc(OCC(=O)N/N=C(\C)c4ccc(OCCCCOCCOCCOCCOCCOCCOCCN=[N+]=[N-])cc4)cc13)-c1cc3c(c(=O)n1C2)COC(=O)[C@]3(O)CC` [Example 75, (S,E)-N′-(1-(4-((1-azido-3,6,9,12,15,18-hexaoxadocosan-22-yl)oxy)phenyl)ethylidene)-2-((4,11-diethyl-4-hydroxy-3,14-dioxo-3,4,12,14-tetrahydro-1H-pyrano[3′,4′:6,7]indolizino[1,2-b]quinolin-9-yl)oxy)acetohydrazide] the IC50 (KB cell line) was 42.7 nM.

Work on `CCc1c2c(nc3ccc(OCCCN)cc13)-c1cc3c(c(=O)n1C2)COC(=O)[C@]3(O)CC` [Example 105] yielded an IC50 (Human KB cells; Homo sapiens, KB) of 1 to 9.9 nM.

Work on `CCc1c2c(nc3ccc(Oc4nc(Cl)nc(NCCSSCCN)n4)cc13)-c1cc3c(c(=O)n1C2)COC(=O)[C@]3(O)CC` [Example 463, (S)-9-((4-((2-((2-aminoethyl)disulfaneyl)ethyl)amino)-6-chloro-1,3,5-triazin-2-yl)oxy)-4,11-diethyl-4-hydroxy-1,12-dihydro-14H-pyrano[3′,4′:6,7]indolizino[1,2-b]quinoline-3,14(4H)-dione] yielded an IC50 (Human KB cells; Human KB cells, 7 days treatment, 0-1,000 nM) of 10 to 100 nM.

In the case of `CC[C@@]1(O)C(=O)OCc2c1cc1n(c2=O)Cc2c-1nc1cc(F)c(C)c3c1c2[C@@H](NC(=O)OCc1ccc(SSC(C)(C)CNC(=O)CCOCCOCCOCCOCCOCCOCCOCCOCCOCCN=[N+]=[N-])cc1)CC3` [Example 58, 4-((1-azido-33-methyl-30-oxo-3,6,9,12,15,18,21,24,27-nonaoxa-31-azatetratriacontan-33-yl)disulfanyl)benzyl ((1S,9S)-9-ethyl-5-fluoro-9-hydroxy-4-methyl-10,13-dioxo-2,3,9,10,13,15-hexahydro-1H,12H-benzo[de]pyrano[3′,4′:6,7]indolizino[1,2-b]quinolin-1-yl)carbamate], the IC50 (KB cell line) is reported as 49.4 nM and the “% of Payload Release” value [1] is reported as “++++ (‘++++’ indicates 76-100% release)”.

`CC[C@@]1(O)C(=O)OCc2c1cc1n(c2=O)Cc2c-1nc1cc(F)c(C)c3c1c2[C@@H](NC(=O)CS)CC3` [Example 452, N-((1S,9S)-9-ethyl-5-fluoro-9-hydroxy-4-methyl-10,13-dioxo-2,3,9,10,13,15-hexahydro-1H,12H-benzo[de]pyrano[3′,4′:6,7]indolizino[1,2-b]quinolin-1-yl)-2-mercaptoacetamide] showed an IC50 (Human KB cells; Homo sapiens, KB) of 10 to 100 nM.

`CC[C@]1(O)C(=O)OCc2c1cc1n(c2=O)Cc2c-1nc1cc(F)c(C)c3c1c2[C@H](NC(=O)C(C)(C)C(=O)NN)CC3` [Example 410, N-((1R,9R)-9-ethyl-5-fluoro-9-hydroxy-4-methyl-10,13-dioxo-2,3,9,10,13,15-hexahydro-1H,12H-benzo[de]pyrano[3′,4′:6,7]indolizino[1,2-b]quinolin-1-yl)-3-hydrazineyl-2,2-dimethyl-3-oxopropanamide] showed an IC50 (Human KB cells; Homo sapiens, KB) of 10 to 100 nM.

With `CCc1c2c(nc3ccc(OCCCSSC(C)(C)CN)cc13)-c1cc3c(c(=O)n1C2)COC(=O)[C@]3(O)CC` [Example 331] the IC50 (Human KB cells; Homo sapiens, KB) was 10 to 100 nM.

With `CC[C@@]1(O)C(=O)OCc2c1cc1n(c2=O)Cc2c-1nc1cc(F)c(C)c3c1c2[C@@H](NC(=O)OCc1c(F)cc(NC(=O)[C@H](CCCNC(N)=O)NC(=O)[C@@H](NC(=O)CCOCCOCCOCCOCCOCCOCCOCCOCCOCCN=[N+]=[N-])C(C)C)cc1F)CC3` (single isomer, unassigned) [Example 27, 4-((32s,35s)-1-azido-32-isopropyl-30,33-dioxo-35-(3-ureidopropyl)-3,6,9,12,15,18,21,24,27-nonaoxa-31,34-diazahexatriacontan-36-amido)-2,6-difluorobenzyl ((1s,9s)-9-ethyl-5-fluoro-9-hydroxy-4-methyl-10,13-dioxo-2,3,9,10,13,15-hexahydro-1H,12H-benzo[de]pyrano[3′,4′:6,7]indolizino[1,2-b]quinolin-1-yl)carbamate] the IC50 (KB cell line) was 5.2 nM and the “% of Payload Release” value [1] was “++++ (‘++++’ indicates 76-100% release)”.

For `CC[C@@]1(O)C(=O)OCc2c1cc1n(c2=O)Cc2c-1nc1cc(F)c(C)c3c1c2[C@@H](Nc1nc(Cl)nc(NCCSSC(C)(C)CN)n1)CC3` [Example 377, (1S,9S)-1-((4-((2-((1-amino-2-methylpropan-2-yl)disulfaneyl)ethyl)amino)-6-chloro-1,3,5-triazin-2-yl)amino)-9-ethyl-5-fluoro-9-hydroxy-4-methyl-1,2,3,9,12,15-hexahydro-10H,13H-benzo[de]pyrano[3′,4′:6,7]indolizino[1,2-b]quinoline-10,13-dione 2,2,2-trifluoroacetate], the IC50 (Human KB cells; Homo sapiens, KB) was 10 to 100 nM.

Compound `CC[C@@]1(O)C(=O)OCc2c1cc1n(c2=O)Cc2c-1nc1cc(F)c(C)c3c1c2[C@@H](NC(=O)CSSC(C)(C)CN)CC3` [Example 454, 2-((1-amino-2-methylpropan-2-yl)disulfaneyl)-N-((1S,9S)-9-ethyl-5-fluoro-9-hydroxy-4-methyl-10,13-dioxo-2,3,9,10,13,15-hexahydro-1H,12H-benzo[de]pyrano[3′,4′:6,7]indolizino[1,2-b]quinolin-1-yl)acetamide 2,2,2-trifluoroacetic acid salt] has an IC50 (Human KB cells; Homo sapiens, KB) of 10 to 100 nM.

With `CCc1c2c(nc3ccc(OCCCNC(=O)OCc4ccc(NC(=O)[C@H](CCCNC(N)=O)NC(=O)[C@@H](NC(=O)CCOCCOCCOCCOCCOCCOCCOCCOCCOCCN=[N+]=[N-])C(C)C)cc4)cc13)-c1cc3c(c(=O)n1C2)COC(=O)[C@]3(O)CC` [Example 16, 4-((32S,35S)-1-azido-32-isopropyl-30,33-dioxo-35-(3-ureidopropyl)-3,6,9,12,15,18,21,24,27-nonaoxa-31,34-diazahexatriacontan-36-amido)benzyl (3-(((S)-4,11-diethyl-4-hydroxy-3,14-dioxo-3,4,12,14-tetrahydro-1H-pyrano[3′,4′:6,7]indolizino[1,2-b]quinolin-9-yl)oxy)propyl)carbamate] the “% of Payload Release” value [1] was “+++ (‘+++’ indicates 51-75% release)”.

Source: patent publication US20230241243A1, “CARRIER PARTICLE-DRUG CONJUGATES, SELF-IMMOLATIVE LINKERS, AND USES THEREOF” (priority 2020, published 2023)
